# Data taken from the supplement of paper PMC6045584.
# ± gives the standard deviation of the averaged measurements.
# Tests used:
# DOXORUBICIN = compound: COc1cccc2c1C(=O)c1c(O)c3c(c(O)c1C2=O)C[C@@](O)(C(=O)CO)C[C@@H]3O[C@H]1C[C@H](N)[C@H](O)[C@H](C)O1 [DOXORUBICIN]; assay: surviving fraction relative to DMSO-only wells; higher = less growth inhibition; conditions: exposure time: 5 days
# Outline: (§1)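 In 384-well plates, 250–500 log-phase tumour cells per well were given 24 hours before five days of continuous exposure to inhibitors at 0.5, 1, 5, 10, 50, 100, 500 and 1000 nM. Surviving fraction is luminescence from CellTiter-Glo, normalised to the median of wells containing DMSO alone. Reading took place after 10 minutes at room temperature.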
# VISMODEGIB = compound: CS(=O)(=O)c1ccc(C(=O)Nc2ccc(Cl)c(-c3ccccn3)c2)c(Cl)c1 [VISMODEGIB]; assay: as above; conditions: exposure time: 5 days
# Outline: as §1
Test System,surviving fraction (DOXORUBICIN; 0.5 nM),surviving fraction (DOXORUBICIN; 1 nM),surviving fraction (DOXORUBICIN; 5 nM),surviving fraction (DOXORUBICIN; 10 nM),surviving fraction (DOXORUBICIN; 50 nM),surviving fraction (DOXORUBICIN; 100 nM),surviving fraction (DOXORUBICIN; 500 nM),surviving fraction (DOXORUBICIN; 1000 nM),surviving fraction (VISMODEGIB; 0.5 nM),surviving fraction (VISMODEGIB; 1 nM),surviving fraction (VISMODEGIB; 5 nM),surviving fraction (VISMODEGIB; 10 nM),surviving fraction (VISMODEGIB; 50 nM),surviving fraction (VISMODEGIB; 100 nM),surviving fraction (VISMODEGIB; 500 nM),surviving fraction (VISMODEGIB; 1000 nM)
HCC1395 BREAST,0.926 ± 0.18,1.11 ± 0.18,1.03 ± 0.036,1.19 ± 0.11,0.928 ± 0.11,1.07 ± 0.08,0.693 ± 0.085,0.808 ± 0.091,0.717 ± 0.018,0.758 ± 0.12,0.818 ± 0.031,0.83 ± 0.12,0.681 ± 0.14,0.695 ± 0.055,0.676 ± 0.052,0.772 ± 0.076
HCC1806 BREAST,0.963 ± 0.033,1.01 ± 0.076,0.75 ± 0.068,0.369 ± 0.039,0.102 ± 0.013,0.0793 ± 0.005,0.0243 ± 0.0011,0.0257 ± 0.0011,0.902 ± 0.088,1.03 ± 0.043,1.18 ± 0.1,1.05 ± 0.083,0.932 ± 0.093,0.98 ± 0.1,0.896 ± 0.11,0.904 ± 0.12
HCC1954 BREAST,1.03 ± 0.19,0.955 ± 0.18,0.829 ± 0.015,0.772 ± 0.058,0.465 ± 0.067,0.169 ± 0.0085,0.0355 ± 0.00071,0.0328 ± 0.00035,0.673 ± 0.096,0.637 ± 0.0088,0.72 ± 0.015,0.786 ± 0.03,0.768 ± 0.18,0.6402 ± 0.0025,0.618 ± 0.01,0.546 ± 0.025
HCT15 LARGE INTESTINE,1.01 ± 0.016,0.986 ± 0.044,1.01 ± 0.045,0.987 ± 0.02,0.486 ± 0.044,0.18 ± 0.018,0.0863 ± 0.005,0.066 ± 0.0027,0.966 ± 0.01,1.04 ± 0.052,0.998 ± 0.033,1.02 ± 0.072,0.931 ± 0.034,1.01 ± 0.048,0.9417 ± 0.0025,1.03 ± 0.033
HELA CERVIX,0.998 ± 0.055,1.03 ± 0.022,0.897 ± 0.029,0.595 ± 0.031,0.316 ± 0.007,0.309 ± 0.022,0.0252 ± 0.00076,0.0252 ± 0.0013,1 ± 0.046,1.05 ± 0.052,0.9757 ± 0.0083,1.02 ± 0.07,1.0558 ± 0.001,1.14 ± 0.041,1.04 ± 0.058,1.15 ± 0.019
HOS BONE,1.009 ± 0.0046,1 ± 0.028,0.686 ± 0.0056,0.352 ± 0.1,0.087 ± 0.0053,0.043 ± 0.007,0.024,0.0283 ± 0.0015,1 ± 0.013,1.01 ± 0.015,1.012 ± 0.0066,1.03 ± 0.026,0.991 ± 0.026,1.03 ± 0.05,1.01 ± 0.029,1.01 ± 0.079
HOSMNG BONE,0.976 ± 0.05,1.02 ± 0.032,0.983 ± 0.083,0.98 ± 0.07,0.549 ± 0.051,0.506 ± 0.025,0.165 ± 0.056,0.153 ± 0.037,0.972 ± 0.12,0.993 ± 0.15,0.942 ± 0.095,0.906 ± 0.067,0.942 ± 0.15,0.991 ± 0.093,1.02 ± 0.23,1.05 ± 0.16
HSSYII SYNOVIAL,0.901 ± 0.025,0.759 ± 0.018,0.381 ± 0.02,0.157 ± 0.015,0.0632 ± 0.0042,0.0312 ± 0.002,0.0185 ± 0.0022,0.0217 ± 0.0019,0.894 ± 0.023,0.931 ± 0.038,0.904 ± 0.078,0.906 ± 0.037,0.812 ± 0.027,0.831 ± 0.03,0.795 ± 0.026,0.771 ± 0.014
HT1080 SOFT TISSUE,0.992 ± 0.01,0.95 ± 0.041,0.553 ± 0.0044,0.333 ± 0.037,0.265 ± 0.0078,0.222 ± 0.018,0.0267 ± 0.00058,0.0437 ± 0.0045,1.021 ± 0.01,0.971 ± 0.028,1 ± 0.014,0.978 ± 0.03,0.968 ± 0.046,0.991 ± 0.048,0.962 ± 0.024,0.994 ± 0.06
HU09 BONE,0.924 ± 0.04,0.964 ± 0.11,0.861 ± 0.13,0.539 ± 0.1,0.0467 ± 0.0046,0.0277 ± 0.005,0.0227 ± 0.0023,0.0247 ± 0.0021,1.03 ± 0.079,0.973 ± 0.088,1.07 ± 0.14,1.08 ± 0.17,0.913 ± 0.04,0.898 ± 0.066,0.802 ± 0.036,0.886 ± 0.08
HUO3N1 BONE,0.977 ± 0.053,1.02 ± 0.021,0.953 ± 0.052,0.857 ± 0.049,0.47 ± 0.016,0.311 ± 0.025,0.08133 ± 0.00058,0.0547 ± 0.00058,1.04 ± 0.04,0.976 ± 0.038,1.06 ± 0.061,1.03 ± 0.062,0.977 ± 0.025,0.962 ± 0.052,0.994 ± 0.03,0.901 ± 0.059
JIMT1 BREAST,0.943 ± 0.0048,0.963 ± 0.025,0.994 ± 0.04,0.901 ± 0.036,0.56 ± 0.055,0.48 ± 0.017,0.225 ± 0.012,0.087 ± 0.019,0.906 ± 0.044,0.89 ± 0.016,0.9112 ± 0.0064,0.948 ± 0.041,0.849 ± 0.035,0.972 ± 0.021,0.881 ± 0.053,0.952 ± 0.057
JURKAT HAEMATOPOIETIC AND LYMPHOID TISSUE,1.05 ± 0.023,1.049 ± 0.0078,0.61 ± 0.035,0.129 ± 0.004,0.0323 ± 0.00058,0.0293 ± 0.00058,0.027,0.0297 ± 0.00058,1.09 ± 0.0025,1.09 ± 0.017,1.06 ± 0.017,1.1 ± 0.019,0.99 ± 0.016,1.04 ± 0.026,1.02 ± 0.032,1.05 ± 0.017
KPD BONE,1.06 ± 0.057,0.963 ± 0.056,0.897 ± 0.075,0.909 ± 0.05,0.242 ± 0.048,0.116 ± 0.011,0.0297 ± 0.0031,0.0317 ± 0.0015,0.899 ± 0.045,0.946 ± 0.088,1.05 ± 0.078,1.01 ± 0.017,0.956 ± 0.012,1.05 ± 0.073,0.98 ± 0.039,0.933 ± 0.07
LM7 BONE,0.95 ± 0.033,1.05 ± 0.073,0.902 ± 0.051,0.818 ± 0.014,0.245 ± 0.016,0.229 ± 0.018,0.0483 ± 0.0038,0.0483 ± 0.0065,0.92 ± 0.055,0.955 ± 0.02,1.56 ± 1,1.03 ± 0.037,0.865 ± 0.01,0.909 ± 0.067,0.849 ± 0.067,0.86 ± 0.085
LNCAP PROSTATE,0.973 ± 0.018,0.863 ± 0.076,0.483 ± 0.075,0.33 ± 0.029,0.124 ± 0.013,0.0727 ± 0.01,0.024 ± 0.0017,0.0247 ± 0.0011,1.01 ± 0.17,0.95 ± 0.15,1.01 ± 0.13,1.02 ± 0.21,1.14 ± 0.11,1.08 ± 0.19,1.13 ± 0.13,1.08 ± 0.12
MCF7 BREAST,0.857 ± 0.038,0.868 ± 0.042,0.859 ± 0.053,0.7804 ± 0.0075,0.589 ± 0.032,0.469 ± 0.0095,0.0898 ± 0.0037,0.0774 ± 0.008,0.898 ± 0.029,0.916 ± 0.059,0.874 ± 0.032,0.892 ± 0.097,0.883 ± 0.032,0.966 ± 0.043,0.913 ± 0.041,0.904 ± 0.037
MDAMB134 BREAST,0.865 ± 0.0028,0.835 ± 0.098,1.03 ± 0.021,0.9 ± 0.098,0.734 ± 0.023,0.693 ± 0.085,0.106 ± 0.019,0.0295 ± 0.0035,0.848 ± 0.089,0.886 ± 0.14,0.878 ± 0.057,0.915 ± 0.062,0.687 ± 0.12,0.717 ± 0.093,0.625 ± 0.024,0.662 ± 0.11
MDAMB157 BREAST,0.918 ± 0.025,0.869 ± 0.053,0.498 ± 0.058,0.213 ± 0.02,0.375 ± 0.042,0.214 ± 0.014,0.053 ± 0.0027,0.0307 ± 0.0046,0.901 ± 0.11,0.943 ± 0.098,1.02 ± 0.04,0.966 ± 0.06,1.02 ± 0.11,1.13 ± 0.12,1.01 ± 0.049,0.977 ± 0.061
MDAMB231 BREAST,0.979 ± 0.029,0.992 ± 0.037,0.946 ± 0.024,0.817 ± 0.026,0.53 ± 0.014,0.474 ± 0.011,0.125 ± 0.0043,0.0638 ± 0.0041,0.9193 ± 0.003,0.942 ± 0.018,0.95 ± 0.019,0.96 ± 0.02,0.884 ± 0.014,0.9527 ± 0.0036,0.85 ± 0.025,0.8868 ± 0.0044
MDAMB361 BREAST,0.794 ± 0.089,0.997 ± 0.12,0.906 ± 0.013,0.856 ± 0.074,0.746 ± 0.038,0.831 ± 0.1,0.387 ± 0.034,0.0543 ± 0.013,0.83 ± 0.021,0.798 ± 0.039,0.829 ± 0.043,0.784 ± 0.051,0.571 ± 0.019,0.612 ± 0.093,0.583 ± 0.049,0.598 ± 0.032
